Positions of bridges follow the written chain, without caps; N, C: chain ends. Residues, ends and D or L forms follow the SMILES beside them. Chains are numbered I, II in the order given.
Key:
[1] = test system: peripheral blood lymphocytes of non-allergic subject; experiment: Blast formation of lymphocytes (3H-thymidine incorporation), non-allergic subject; format: cell-based, human; conditions: Specimen 4, lymphocytes of non-allergic subject; 7 days culture with peptide, 3H-thymidine overnight
Method: (§1) Blast formation of lymphocytes by peptides of formula I-V of the present invention
(§2) Peripheral blood lymphocytes collected from a mite-allergic patient or a non-allergic subject were suspended in a cell culture medium RPMI 1640 supplemented with 10% fetal bovine serum, so as to give a suspension of 1×10^6 cells/ml. Then, the suspension (0.2 ml/well) prepared above was placed in a 96-well microplate for cell culture and further, 20 μl each of a solution of one of the peptides of the formula I-V was placed in the respective wells. The lymphocytes thus treated were cultivated in a humidified atmosphere containing 5% CO2 at 37° C. for 7 days. Thereafter, 20 μl of a ^3 H-thymidine solution (12.5 μCi/ml) was added to each of the wells and allowed to react overnight. The peripheral blood lymphocytes were then collected onto filter, and the radioactivity was measured by a liquid scintillation counter.
(§3) As is apparent from Table 1, virtually no incorporation of ^3 H-thymidine was recognized in the peripheral blood lymphocyte of a non-allergic subject, while a high radioactivity was detected from the peripheral blood lymphocytes of a mite-allergic patient.

[2] = test system: peripheral blood lymphocytes of mite-allergic patient; experiment: Blast formation of lymphocytes (3H-thymidine incorporation), mite-allergic patients; format: cell-based, human; conditions: 7 days culture with peptide, 3H-thymidine overnight; for radioactivity of 3H-thymidine incorporated into lymphocytes, Specimen 1: Specimen 1, lymphocytes of mite-allergic patient; for radioactivity of 3H-thymidine incorporated into lymphocytes, Specimen 2: Specimen 2, lymphocytes of mite-allergic patient; for radioactivity of 3H-thymidine incorporated into lymphocytes, Specimen 3: Specimen 3, lymphocytes of mite-allergic patient
Method: as §1, §2, §3

Molecule	radioactivity of 3H-thymidine incorporated into lymphocytes, Specimen 4 [1] [cpm]	radioactivity of 3H-thymidine incorporated into lymphocytes, Specimen 1 [2] [cpm]	radioactivity of 3H-thymidine incorporated into lymphocytes, Specimen 2 [2] [cpm]	radioactivity of 3H-thymidine incorporated into lymphocytes, Specimen 3 [2] [cpm]
H-GVLACAIATHAKIRD-OH [III, H-Gly-Val-Leu-Ala-Cys-Ala-Ile-Ala-Thr-His-Ala-Lys-Ile-Arg-Asp-OH]	< 100	547	259	158
CC[C@H](C)[C@H](NC(=O)[C@H](C)NC(=O)[C@H](CSSC[C@H](NC(=O)[C@H](CC(=O)O)NC(=O)[C@H](CCCCN)NC(=O)[C@@H](NC(=O)[C@H](CC(=O)O)NC(=O)[C@@H](NC(=O)[C@H](CCC(N)=O)NC(=O)[C@@H](N)CC(=O)O)C(C)C)C(C)C)C(=O)N[C@@H](C)C(=O)N[C@@H](CC(N)=O)C(=O)N[C@@H](CC(N)=O)C(=O)N[C@@H](CCC(=O)O)C(=O)N[C@H](C(=O)N[C@@H](CCCCN)C(=O)N[C@@H](CCCCN)C(=O)O)[C@@H](C)CC)NC(=O)[C@H](C)NC(=O)[C@H](CC(C)C)NC(=O)[C@@H](NC(=O)CN)C(C)C)C(=O)N[C@@H](C)C(=O)N[C@H](C(=O)N[C@@H](Cc1c[nH]cn1)C(=O)N[C@@H](C)C(=O)N[C@@H](CCCCN)C(=O)N[C@H](C(=O)N[C@@H](CCCNC(=N)N)C(=O)N[C@@H](CC(=O)O)C(=O)O)[C@@H](C)CC)[C@@H](C)O [V] (I: H-DQVDVKDCANNEIKK-OH / II: H-GVLACAIATHAKIRD-OH; disulfide I:8-II:5)	< 100	1457	430	179
CC[C@H](C)[C@H](NC(=O)[C@H](C)NC(=O)[C@H](CSSC[C@H](NC(=O)[C@H](C)NC(=O)[C@H](CC(C)C)NC(=O)[C@@H](NC(=O)CN)C(C)C)C(=O)N[C@@H](C)C(=O)N[C@H](C(=O)N[C@@H](C)C(=O)N[C@H](C(=O)N[C@@H](Cc1c[nH]cn1)C(=O)N[C@@H](C)C(=O)N[C@@H](CCCCN)C(=O)N[C@H](C(=O)N[C@@H](CCCNC(=N)N)C(=O)N[C@@H](CC(=O)O)C(=O)O)[C@@H](C)CC)[C@@H](C)O)[C@@H](C)CC)NC(=O)[C@H](C)NC(=O)[C@H](CC(C)C)NC(=O)[C@@H](NC(=O)CN)C(C)C)C(=O)N[C@@H](C)C(=O)N[C@H](C(=O)N[C@@H](Cc1c[nH]cn1)C(=O)N[C@@H](C)C(=O)N[C@@H](CCCCN)C(=O)N[C@H](C(=O)N[C@@H](CCCNC(=N)N)C(=O)N[C@@H](CC(=O)O)C(=O)O)[C@@H](C)CC)[C@@H](C)O [IV] (I: H-GVLACAIATHAKIRD-OH / II: H-GVLACAIATHAKIRD-OH; disulfide I:5-II:5)	< 100	374	324	162
CC[C@H](C)[C@H](NC(=O)[C@H](CCC(=O)O)NC(=O)[C@H](CC(N)=O)NC(=O)[C@H](CC(N)=O)NC(=O)[C@H](C)NC(=O)[C@H](CSSC[C@H](NC(=O)[C@H](CC(=O)O)NC(=O)[C@H](CCCCN)NC(=O)[C@@H](NC(=O)[C@H](CC(=O)O)NC(=O)[C@@H](NC(=O)[C@H](CCC(N)=O)NC(=O)[C@@H](N)CC(=O)O)C(C)C)C(C)C)C(=O)N[C@@H](C)C(=O)N[C@@H](CC(N)=O)C(=O)N[C@@H](CC(N)=O)C(=O)N[C@@H](CCC(=O)O)C(=O)N[C@H](C(=O)N[C@@H](CCCCN)C(=O)N[C@@H](CCCCN)C(=O)O)[C@@H](C)CC)NC(=O)[C@H](CC(=O)O)NC(=O)[C@H](CCCCN)NC(=O)[C@@H](NC(=O)[C@H](CC(=O)O)NC(=O)[C@@H](NC(=O)[C@H](CCC(N)=O)NC(=O)[C@@H](N)CC(=O)O)C(C)C)C(C)C)C(=O)N[C@@H](CCCCN)C(=O)N[C@@H](CCCCN)C(=O)O [II] (I: H-DQVDVKDCANNEIKK-OH / II: H-DQVDVKDCANNEIKK-OH; disulfide I:8-II:8)	< 100	219	125	158
H-DQVDVKDCANNEIKK-OH [I, H-Asp-Gln-Val-Asp-Val-Lys-Asp-Cys-Ala-Asn-Asn-Glu-Ile-Lys-Lys-OH]	< 100	281	389	282

Reference: US5460977A, “Peptide having allergenicity” (Torii & Co., priority 1992, dated 1995)
